Results on eleven molecules are retold here after ChEMBL document CHEMBL1201862, “PubChem BioAssay data set” (2004).

“And” between values parts separate entries of the source, which are not always exact repeats. Equal entries are not always repeated.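 Grown in 96-well plates, cells were treated for 48 hours with each compound at five concentrations. Insufficient inhibition: endpoint recorded as highest concentration tested. GI50 is the concentration that inhibits growth by half.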 The source made the active and inactive calls. No stated cut-off is given here; in the data, active = GI50 up to about 1.1 µM and inactive = higher.

Broadly, the GI50 is the concentration giving 50% growth inhibition.

Among the test systems are UACC-62; HT-29; NCI/ADR-RES; M14; IGROV-1; KM12; HOP-62; TK-10; SK-MEL-2; HCT-15; COLO 205; PC-3; MOLT-4; UO-31; A498; HCT-116; CCRF-CEM; SR; Malme-3M; SNB-75.
Common to all, as to assay: DTP human tumour cell line panel, 48 h

On to `Cc1cc(OCc2nnc3n2S(=O)(=O)c2ccccc2N3C)ccc1Cl`, for which the GI50 is 17.2 µM (inactive) with UACC-62; 52 µM (inactive) in the test on HT-29; 35.7 µM (inactive) with NCI/ADR-RES; > 100 µM (inactive) in the test on M14; 22.9 µM (inactive) in the test with IGROV-1; > 100 µM (inactive) in the test with KM12. In addition, the GI50 with HOP-62 is 14.1 µM (inactive); in the test on TK-10, 29.9 µM (inactive); with SK-MEL-2, > 100 µM (inactive); in the test on HCT-15, > 100 µM; in the test on COLO 205, > 100 µM (inactive); in the test with PC-3, 95.5 µM (inactive). The GI50 was 55 µM (inactive) in the test with MOLT-4; 58.3 µM (inactive) in the test with UO-31; 24.6 µM (inactive) in the test with A498; 39.5 µM (inactive) in the test with HCT-116; 15.7 µM (inactive) with CCRF-CEM.

Regarding `O=C1/C(=C/c2ccc(Cl)cc2)CSC/C1=C\c1ccc(Cl)cc1`, the GI50 is 1.51 µM (inactive) in the test on UACC-62; 1.97 µM (inactive) in the test with HT-29; 6.27 µM (inactive) in the test with NCI/ADR-RES; 1.84 µM (inactive) with M14; 1.82 µM (inactive) in the test on IGROV-1; 1.96 µM (inactive) with KM12. Also, the GI50 in the test on HOP-62 was 4.74 µM (inactive); in the test with TK-10, 3.18 µM (inactive); with SK-MEL-2, 14.5 µM (inactive); in the test with SR, 2.69 µM (inactive); in the test with HCT-15 it was 13.9 µM; in the test on COLO 205 it was 3.02 µM (inactive). The GI50 with Malme-3M was 10.3 µM (inactive); in the test on PC-3, 3.52 µM (inactive); in the test with MOLT-4, 2.61 µM (inactive); in the test with UO-31 it was 1.92 µM (inactive); in the test with HCT-116, 1.76 µM (inactive); with CCRF-CEM it was 2.68 µM (inactive).

As for `Oc1cc(O)cc(-c2nc3cc(F)ccc3s2)c1`, the GI50 was 21.1 µM (inactive) in the test on UACC-62; 21.4 µM (inactive) in the test on HT-29; 36.8 µM (inactive) in the test with NCI/ADR-RES; 19.4 µM (inactive) in the test on M14; 27.7 µM (inactive) in the test on IGROV-1; 20.4 µM (inactive) in the test on KM12. The GI50 in the test on TK-10 is 30.3 µM (inactive); with SK-MEL-2, 22.7 µM (inactive); with HCT-15 it was 19.7 µM; in the test on COLO 205, 21 µM (inactive); with Malme-3M, 31.6 µM (inactive); in the test with PC-3, 25.1 µM (inactive). Further, the GI50 with UO-31 was 24 µM (inactive); in the test with A498, 18.5 µM (inactive); in the test with HCT-116, 24.5 µM (inactive); in the test with CCRF-CEM, 27.5 µM (inactive).

Turning to `CC(C)(C)N/N=C(\C(=O)NC1=C(Cl)C(=O)c2ccccc2C1=O)C1C=CCS1(=O)=O` (configuration not stated), the GI50 in the test with UACC-62 is 3.3 µM (inactive); with HT-29, 14.4 µM (inactive); in the test with NCI/ADR-RES it was 22 µM (inactive); with M14, 11.5 µM (inactive); with IGROV-1, 10 µM (inactive); in the test on KM12, 16 µM (inactive). Also, the GI50 in the test with TK-10 is 38.9 µM (inactive); in the test with SK-MEL-2, 11.2 µM (inactive); with HCT-15 it was 7.06 µM; with COLO 205, 16.6 µM (inactive); in the test with Malme-3M, 2.27 µM (inactive); with SNB-75, 11.1 µM (inactive). The GI50 in the test on PC-3 was 18.1 µM (inactive); in the test with MOLT-4, 66.7 µM (inactive); with UO-31, 16.8 µM (inactive); with A498, 21.2 µM (inactive); with HCT-116 it was 15.5 µM (inactive); in the test with CCRF-CEM, > 100 µM (inactive).

On to `CCON1CC(C(=O)OC)=C(O)C1=O`, for which the GI50 in the test with UACC-62, in the test on HT-29, with NCI/ADR-RES, in the test on M14, in the test on IGROV-1 and in the test on KM12 was > 100 µM (inactive) each time. For the same molecule, the GI50 with HOP-62 was > 100 µM (inactive); in the test with TK-10 it was > 100 µM (inactive); with SK-MEL-2, > 100 µM (inactive); in the test on HCT-15, > 100 µM; in the test on COLO 205, > 100 µM (inactive); in the test on Malme-3M it was > 100 µM (inactive). The GI50 in the test on SNB-75, in the test on PC-3, in the test on MOLT-4, in the test on UO-31, in the test with A498 and with HCT-116 was > 100 µM (inactive) throughout.

For `COc1ccc(-c2oc3c(OC)c(OC)cc(O)c3c(=O)c2OC)cc1`, the GI50 in the test on UACC-62, in the test with HT-29, in the test with NCI/ADR-RES, with M14, in the test on IGROV-1 and in the test with KM12 was > 100 µM (inactive) each time. Also, the GI50 in the test with HOP-62 is 55.8 µM (inactive); with TK-10, > 100 µM (inactive); in the test on SK-MEL-2 it was > 100 µM (inactive); in the test on HCT-15, > 100 µM; in the test with COLO 205, > 100 µM (inactive); in the test with Malme-3M it was > 100 µM (inactive). Further, the GI50 was > 10 µM (inactive) in the test on SNB-75; > 10 µM (inactive) in the test with PC-3; > 100 µM (inactive) with MOLT-4; > 100 µM (inactive) in the test on UO-31; 45.8 µM (inactive) in the test on A498; 46.5 µM (inactive) with HCT-116. For the same molecule, the GI50 with CCRF-CEM was > 100 µM (inactive).

For the molecule `O=C1/C(=C/c2cccc(Br)c2)CSC/C1=C\c1cccc(Br)c1`, the GI50 with UACC-62 was 1.65 µM (inactive); with HT-29, 2.29 µM (inactive); in the test on NCI/ADR-RES it was 2.34 µM (inactive); in the test on M14 it was 2.4 µM (inactive); with IGROV-1, 3.04 µM (inactive); in the test on KM12 it was 1.99 µM (inactive). In addition, the GI50 in the test on HOP-62 was 2.72 µM (inactive); with TK-10, 5.69 µM (inactive); with SK-MEL-2, 3.08 µM (inactive); with SR, 2 µM (inactive); with HCT-15, 2.51 µM; in the test on COLO 205, 2.9 µM (inactive). For the same molecule, the GI50 in the test with Malme-3M was 1.92 µM (inactive); in the test with PC-3 it was 2.5 µM (inactive); in the test with MOLT-4 it was 1.87 µM (inactive); with UO-31, 2.04 µM (inactive); in the test with HCT-116, 1.78 µM (inactive); in the test with CCRF-CEM, 1.4 µM (inactive).

As to `C[N+](C)([O-])Cc1cccc(NC(=O)c2ccc(C(=O)Nc3cccc(C[N+](C)(C)[O-])c3)cc2)c1`, the GI50 in the test on UACC-62, in the test on HT-29, with NCI/ADR-RES, in the test with M14, with IGROV-1 and with KM12 was > 100 µM (inactive) throughout. Also, the GI50 with HOP-62 was > 100 µM (inactive); in the test on TK-10, > 100 µM (inactive); in the test with SK-MEL-2, > 100 µM (inactive); in the test with SR it was > 100 µM (inactive); with HCT-15 it was > 100 µM; in the test on COLO 205 it was > 100 µM (inactive). Besides, the GI50 in the test with Malme-3M, with PC-3, in the test with MOLT-4, in the test on UO-31, with HCT-116 and in the test with CCRF-CEM was > 100 µM (inactive) each time.

Take `Fc1ccc(C(OCCN2CC3CCC(C2)N3CCCc2ccccc2)c2ccc(F)cc2)cc1`: the GI50 is 9.51 µM (inactive) in the test on UACC-62; 3.29 µM (inactive) in the test with HT-29; 3.89 µM (inactive) in the test on NCI/ADR-RES; 2.48 µM (inactive) in the test on M14; 8.71 µM (inactive) in the test with IGROV-1; 3.18 µM (inactive) in the test with KM12. Further, the GI50 in the test with HOP-62 is 6.03 µM (inactive); in the test on TK-10, 11.7 µM (inactive); in the test on SK-MEL-2, 2.55 µM (inactive); with HCT-15, 3.42 µM; in the test on COLO 205, 1.41 µM (inactive); with Malme-3M, 3.32 µM (inactive). Also, the GI50 in the test on SNB-75 is 3.37 µM (inactive); in the test on PC-3 it was 2.72 µM (inactive); with MOLT-4, 2.79 µM (inactive); in the test on UO-31, 7.33 µM (inactive); in the test on A498, 4.27 µM (inactive); with HCT-116, 2.93 µM (inactive). In the test on CCRF-CEM, the GI50 was 2.71 µM (inactive).

For the molecule `Cc1nc2ccc(NC3OC(CO)C(O)C(O)C3O)cc2c(=O)n1-c1ccccc1` (configuration not stated), the GI50 with UACC-62 is > 100 µM (inactive); in the test with HT-29 it was > 100 µM (inactive); in the test with NCI/ADR-RES, > 100 µM (inactive); in the test on IGROV-1 it was > 100 µM (inactive); in the test with KM12, 92.7 µM (inactive); with HOP-62 it was > 100 µM (inactive). The GI50 in the test on TK-10 is > 100 µM (inactive); in the test with SK-MEL-2, > 100 µM (inactive); in the test on HCT-15, > 100 µM; with COLO 205 it was > 100 µM (inactive); in the test with Malme-3M, > 100 µM (inactive); with SNB-75, > 100 µM (inactive). For the same molecule, the GI50 is > 100 µM (inactive) with PC-3; > 100 µM (inactive) and > 99.3 µM (inactive) in the test with MOLT-4; > 100 µM (inactive) in the test with UO-31; > 100 µM (inactive) in the test on A498; > 100 µM (inactive) with HCT-116.

Regarding `N=c1sc2ccccc2n1CC[S-].c1ccc2c(c1)sc1[n+]2CCS1`, the GI50 in the test on UACC-62 was 14 µM (inactive); in the test on HT-29, 19 µM (inactive); in the test on NCI/ADR-RES, 20.4 µM (inactive); in the test on M14 it was 16.1 µM (inactive); in the test on IGROV-1, 12.5 µM (inactive); in the test with KM12 it was 17.5 µM (inactive). Also, the GI50 in the test with HOP-62 is 17.3 µM (inactive); in the test on TK-10, 22.8 µM (inactive); in the test on SK-MEL-2, 18.2 µM (inactive); with HCT-15, 16.7 µM; with COLO 205 it was 14.3 µM (inactive); in the test with Malme-3M, 17.7 µM (inactive). Further, the GI50 is 41.5 µM (inactive) in the test with SNB-75; 29.8 µM (inactive) in the test on PC-3; 3 µM (inactive) in the test with MOLT-4; 12.5 µM (inactive) in the test with UO-31; 14.7 µM (inactive) in the test on A498; 16.9 µM (inactive) with HCT-116. In the test on CCRF-CEM, the GI50 is 9.06 µM (inactive).
